Reference: the supplement of paper PMC10307832

Legend:
Experiment in all cases: relative viability (nuclei count vs DMSO), 5 days (fraction); higher = more cells survive
[1] = compound: CCC1=CN=CN=C1N2CCN(CC2)CC3=NC4=C(N3)C=C(C=C4)C(F)(F)F + COc1cc2c(Oc3ccc(NC(=O)C4(C(=O)Nc5ccc(F)cc5)CC4)cc3F)ccnc2cc1OCCCN1CCOCC1 [Foretinib] (partner 0.25 µM)
Outline: (§1)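 Relative viability divides the nuclei count in treated wells by that in vehicle wells. Lung cancer cell lines were seeded in 1536-well plates, dosed by pin tool the next day, and fixed and stained after 5 days in one step with final 0.05% Triton X-100, 1% formaldehyde and 1 ug/ml Hoechst. Dosing was a single drug or a fixed anchor-drug dose plus five library-drug doses (not always all listed) in √10 steps, and values are medians of duplicate plates imaged at 4×.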

[2] = compound: N=C1NC(=O)/C(=C/c2ccc(O)cc2)S1 [Mirin] + CC(=O)Nc1cccc(-n2c(=O)n(C3CC3)c(=O)c3c(Nc4ccc(I)cc4F)n(C)c(=O)c(C)c32)c1 [Trametinib] (partner 0.02 µM)
Outline: as §1

[3] = compound: CCn1c(-c2nonc2N)nc2cnc(Oc3cccc(NC(=O)c4ccc(OCCN5CCOCC5)cc4)c3)cc21 + Cc1nc(NC(=O)N2CCC[C@H]2C(N)=O)sc1-c1ccnc(C(C)(C)C(F)(F)F)c1 [Alpelisib] (partner 2 µM)
Outline: as §1

[4] = compound: CCn1c(-c2nonc2N)nc2cnc(Oc3cccc(NC(=O)c4ccc(OCCN5CCOCC5)cc4)c3)cc21 + CC1(C)CCC(c2ccc(Cl)cc2)=C(CN2CCN(c3ccc(C(=O)NS(=O)(=O)c4ccc(N[C@H](CCN5CCOCC5)CSc5ccccc5)c(S(=O)(=O)C(F)(F)F)c4)cc3)CC2)C1 [Navitoclax] (partner 0.5 µM)
Outline: as §1

Cell Line	relative viability ([1]; first compound 0.04 µM)	relative viability ([1]; first compound 0.1265 µM)	relative viability ([1]; first compound 0.4 µM)	relative viability ([1]; first compound 1.265 µM)	relative viability ([1]; first compound 4 µM)	relative viability ([2]; first compound 0.25 µM)	relative viability ([2]; first compound 0.7906 µM)	relative viability ([2]; first compound 2.5 µM)	relative viability ([2]; first compound 7.906 µM)	relative viability ([2]; first compound 25 µM)	relative viability ([3]; first compound 0.04 µM)	relative viability ([3]; first compound 0.1265 µM)	relative viability ([3]; first compound 0.4 µM)	relative viability ([3]; first compound 1.265 µM)	relative viability ([3]; first compound 4 µM)	relative viability ([4]; first compound 0.04 µM)	relative viability ([4]; first compound 0.1265 µM)	relative viability ([4]; first compound 0.4 µM)	relative viability ([4]; first compound 1.265 µM)	relative viability ([4]; first compound 4 µM)
LK-2	1.29	1.41	1.09	1.12	0.743	0.653	0.577	0.609	0.421	0.42	1.39	1.2	1.1	0.282	0.512	0.989	0.928	0.467	0.349	0.686
NCI-H358	0.746	0.626	0.686	0.509	0.651	0.123	0.146	0.163	0.11	0.13	1.01	1.04	0.792	0.65	0.42					
NCI-H522						0.682	0.741	0.872	0.768	0.519										
NCI-H650	1.16	1.09	1.05	0.934	1.03	1.08	0.93	0.938	0.968	0.88	1.31	0.893	0.745	0.434	0.492					
NCI-H661	0.973	1.03	1.04	0.943	0.834	0.59	0.722	0.628	0.482	0.575	0.823	0.724	0.435	0.287	0.451					
NCI-H1299	1.1	1.02	1.12	1.11	1.08						0.991	0.891	0.836	0.912	0.861	1.02	1.01	0.887	0.885	0.803
NCI-H1563	0.961	1.01	0.938	0.844	0.917						0.96	0.878	0.825	0.766	0.712					
NCI-H1623	0.835	0.819	0.767	0.749	0.794															
NCI-H1648						0.448		0.41	0.457	0.389										
NCI-H1650	1.26	0.893	0.931		0.808	0.534	0.544	0.579	0.551	0.62						1.79	1.31	1.34	1.08	1.05
NCI-H1703	0.344	0.366	0.369	0.381	0.372						0.385	0.428	0.254	0.209	0.164	1.03	0.886	0.474	0.296	0.233
NCI-H1792						0.422	0.36	0.43	0.421	0.332	0.84	0.773		0.551	0.629	0.732	0.58		0.348	0.518
NCI-H2342	1.16	0.95	0.945	0.528	0.607	0.805	0.853	0.803		0.751										
SW 900	0.778	0.825	0.81	0.795	0.793	0.95	0.76	0.826	0.971	0.653										
